From patent publication US9512087B2, “Hybrid molecules containing pharmacophores of fluconazole as antifungal agents and their preparation” (Council for Scientific & Industrial Research, priority 2011, dated 2016)
≈ marks a conversion by molar mass, not a printed value.

Assays:
Assay in all cases: Antifungal MIC, broth dilution
[1] = test system: F. proliferatum ATCC 10052; assay type: cell-based, Fusarium proliferatum; details: end point 48 hours; for MIC50: Fusarium proliferatum, ATCC10052, RPMI 1640 with MOPS, read-out: Fp01 MIC50
Description: (§1) The compounds of Formula 1 were tested for antifungal activity against Candida albicans, Aspergillus niger and Fusarium proliferatum. In vitro evaluation of antifungal activity was performed by determining the minimum inhibitory concentration (MIC) following standard methods (CLSI: Reference method for broth dilution antifungal susceptibility testing of yeasts; Approved standard, second edition M27-A2, 2002; CLSI: Reference method for broth dilution antifungal susceptibility testing of filamentous fungi; Approved standard M38-A, 2002). Anti-fungal susceptibility testing of these anti-fungal compounds was done by broth dilution method using RPMI 1640 medium with MOPS buffer. Known anti-fungal agents like fluconazole and amphotericin-B were used as positive control. End points were determined after 48 hours visually and by using spectrophotometer wherever necessary. Different dilutions were tried and various sets of experiments performed. The activity parameters are enumerated in Table 5.

C. neoformans ATCC 34664 = assay type: cell-based; details: end point 48 hours; for MIC50: Cryptococcus neoformans, ATCC34664, RPMI 1640 with MOPS, read-out: Cn01 MIC50
A. niger ATCC 16404 = assay type: cell-based, Aspergillus niger; details: end point 48 hours; for MIC50: Aspergillus niger, ATCC16404, RPMI 1640 with MOPS, read-out: An01 MIC50
Description: as §1

C. tropicalis ATCC 750 = assay type: cell-based; details: end point 48 hours; for MIC50: Candida tropicalis, ATCC750, RPMI 1640 with MOPS, read-out: Ct01 MIC50
C. albicans ATCC 24433 = assay type: cell-based, Candida albicans; details: end point 48 hours; for MIC80 / MIC50: Candida albicans, ATCC24433, RPMI 1640 with MOPS; for MIC80: read-out: Ca01 A: MIC80; for MIC50: read-out: Ca01 B: MIC50
Description: as §1

C. glabrata ATCC 90030 = assay type: cell-based; details: end point 48 hours; for MIC50: Nakaseomyces glabratus, ATCC90030, RPMI 1640 with MOPS, read-out: Cg01 MIC50
A. fumigatus ATCC 46645 = assay type: cell-based; details: end point 48 hours; for MIC50: Aspergillus fumigatus, ATCC46645, RPMI 1640 with MOPS, read-out: Afm01 MIC50
C. krusei ATCC 6258 = assay type: cell-based; details: end point 48 hours; for MIC50: Pichia kudriavzevii, ATCC6258, RPMI 1640 with MOPS, read-out: Ck01 MIC50

| Compound | MIC50 [1] [µg/mL] | MIC50 (C. neoformans ATCC 34664) [µg/mL] | MIC50 (A. niger ATCC 16404) [µg/mL] | MIC50 (C. tropicalis ATCC 750) [µg/mL] | MIC80 (C. albicans ATCC 24433) [µg/mL] | MIC50 (C. albicans ATCC 24433) [µg/mL] | MIC50 (C. glabrata ATCC 90030) [µg/mL] | MIC50 (A. fumigatus ATCC 46645) [µg/mL] | MIC50 (C. krusei ATCC 6258) [µg/mL] | Fp01 MIC50 ([1]; RPMI 1640 with MOPS) [µg/mL] | Cn01 MIC50 (C. neoformans ATCC 34664; RPMI 1640 with MOPS) [µg/mL] | An01 MIC50 (A. niger ATCC 16404; RPMI 1640 with MOPS) [µg/mL] | Ct01 MIC50 (C. tropicalis ATCC 750; RPMI 1640 with MOPS) [µg/mL] | Ca01 A: MIC80 (C. albicans ATCC 24433; RPMI 1640 with MOPS) [µg/mL] | Ca01 B: MIC50 (C. albicans ATCC 24433; RPMI 1640 with MOPS) [µg/mL] | Cg01 MIC50 (C. glabrata ATCC 90030; RPMI 1640 with MOPS) [µg/mL] | Afm01 MIC50 (A. fumigatus ATCC 46645; RPMI 1640 with MOPS) [µg/mL] | Ck01 MIC50 (C. krusei ATCC 6258; RPMI 1640 with MOPS) [µg/mL] |
| --- | --- | --- | --- | --- | --- | --- | --- | --- | --- | --- | --- | --- | --- | --- | --- | --- | --- | --- |
| COc1cc(/C=C/C(=O)c2ccc(OCC(O)(Cn3cncn3)c3ccc(F)cc3F)cc2)cc(OC)c1OC (stereo not drawn) [Compound 1A-5] | > 4 | > 4 | > 4 | 1 (≈ 1.81 µM) | 1 (≈ 1.81 µM) | 0.25 (≈ 0.453 µM) | 1 (≈ 1.81 µM) | > 4 | > 4 |  |  |  |  |  |  |  |  |  |
| CCCCCCCCOc1ccc(/C=C/C(=O)c2ccc(OCC(O)(Cn3cncn3)c3ccc(F)cc3F)cc2)cc1 (stereo not drawn) [Compound 1A-9] |  |  |  |  |  |  |  |  |  | >2 | >2 | >2 | >2 | >2 | >2 | >2 | >2 | >2 |
| O=C(/C=C/c1c2ccccc2cc2ccccc12)c1ccc(OCC(O)(Cn2cncn2)c2ccc(F)cc2F)cc1 (stereo not drawn) [Compound 1A-15] | > 2 | 2 (≈ 3.56 µM) | > 2 | > 2 | > 2 | > 2 | 2 (≈ 3.56 µM) | > 2 | > 2 |  |  |  |  |  |  |  |  |  |
| COC(COc1ccc(C(=O)/C=C/c2ccc(Cl)cc2Cl)cc1)(Cn1cncn1)c1ccc(F)cc1F (stereo not drawn) [Compound 1A-19, (E)-3-(2,4-dichlorophenyl)-1-(4-(2-(2,4-difluorophenyl)-2-methoxy-3-(1H-1,2,4-triazol-1-yl)propoxy)phenyl)prop-2-en-1-one] | > 4 | > 4 | > 4 | > 4 | > 4 | 1 (≈ 1.84 µM) | 1 (≈ 1.84 µM) | > 4 | > 4 |  |  |  |  |  |  |  |  |  |

More lines, now with the values ahead:

| MIC50 [1] [µg/mL] | MIC50 (C. neoformans ATCC 34664) [µg/mL] | MIC50 (A. niger ATCC 16404) [µg/mL] | MIC50 (C. tropicalis ATCC 750) [µg/mL] | MIC80 (C. albicans ATCC 24433) [µg/mL] | MIC50 (C. albicans ATCC 24433) [µg/mL] | MIC50 (C. glabrata ATCC 90030) [µg/mL] | MIC50 (A. fumigatus ATCC 46645) [µg/mL] | MIC50 (C. krusei ATCC 6258) [µg/mL] | Fp01 MIC50 ([1]; RPMI 1640 with MOPS) [µg/mL] | Cn01 MIC50 (C. neoformans ATCC 34664; RPMI 1640 with MOPS) [µg/mL] | An01 MIC50 (A. niger ATCC 16404; RPMI 1640 with MOPS) [µg/mL] | Ct01 MIC50 (C. tropicalis ATCC 750; RPMI 1640 with MOPS) [µg/mL] | Ca01 A: MIC80 (C. albicans ATCC 24433; RPMI 1640 with MOPS) [µg/mL] | Ca01 B: MIC50 (C. albicans ATCC 24433; RPMI 1640 with MOPS) [µg/mL] | Cg01 MIC50 (C. glabrata ATCC 90030; RPMI 1640 with MOPS) [µg/mL] | Afm01 MIC50 (A. fumigatus ATCC 46645; RPMI 1640 with MOPS) [µg/mL] | Ck01 MIC50 (C. krusei ATCC 6258; RPMI 1640 with MOPS) [µg/mL] | Compound |
| --- | --- | --- | --- | --- | --- | --- | --- | --- | --- | --- | --- | --- | --- | --- | --- | --- | --- | --- |
| > 4 | 1 (≈ 2.1 µM) | > 4 | 1 (≈ 2.1 µM) | 0.25 (≈ 0.526 µM) | 0.12 (≈ 0.252 µM) | 0.25 (≈ 0.526 µM) | 8 (≈ 16.8 µM) | 2 (≈ 4.21 µM) |  |  |  |  |  |  |  |  |  | Cc1ccc(C(=O)/C=C/c2ccc(OCC(O)(Cn3cncn3)c3ccc(F)cc3F)cc2)cc1 (stereo not drawn) [Compound 1A-21] |
| > 4 | 2 (≈ 4.07 µM) | > 4 | 2 (≈ 4.07 µM) | 1 (≈ 2.03 µM) | 0.5 (≈ 1.02 µM) | 1 (≈ 2.03 µM) | > 4 | > 4 |  |  |  |  |  |  |  |  |  | COc1ccc(/C=C/C(=O)c2ccc(OC[C@@](O)(Cn3cncn3)c3ccc(F)cc3F)cc2)cc1 [S-(+)-1A-2] |
| > 128 | 2 (≈ 6.53 µM) | > 128 | 1 (≈ 3.27 µM) | 1 (≈ 3.27 µM) | 0.25 (≈ 0.816 µM) | 1 (≈ 3.27 µM) | > 128 | 32 (≈ 104 µM) |  |  |  |  |  |  |  |  |  | OC(Cn1cncn1)(Cn1cncn1)c1ccc(F)cc1F [FLU, fluconazole] |
| > 4 | 0.5 (≈ 1.02 µM) | 2 (≈ 4.07 µM) | 0.25 (≈ 0.509 µM) | 0.12 (≈ 0.244 µM) | 0.06 (≈ 0.122 µM) | 0.06 (≈ 0.122 µM) | > 4 | 2 (≈ 4.07 µM) |  |  |  |  |  |  |  |  |  | COc1ccc(/C=C/C(=O)c2ccc(OC[C@](O)(Cn3cncn3)c3ccc(F)cc3F)cc2)cc1 [R-(−)-1A-2] |
| > 4 | 1 (≈ 1.89 µM) | > 4 | 1 (≈ 1.89 µM) | 0.25 (≈ 0.471 µM) | 0.12 (≈ 0.226 µM) | 0.5 (≈ 0.943 µM) | > 4 | 2 (≈ 3.77 µM) |  |  |  |  |  |  |  |  |  | O=C(/C=C/c1ccc(OCC(O)(Cn2cncn2)c2ccc(F)cc2F)cc1)c1ccc(Cl)cc1Cl (stereo not drawn) [Compound 1A-22] |
